Laboratory results as given in patent publication US10899774B2, “IRAK4 modulators” (Genentech, Inc., priority 2017, dated 2021).
Counter-ions that a name gives are not always drawn.

What follows are compounds tested against human IRAK4 (Homo sapiens (Human), UniProt Q9NWZ3) (assay: IRAK4 kinase inhibition, Transcreener fluorescence polarization (ADP detection)). Conditions: recombinant full-length His6-IRAK4; 1.25 nM IRAK4; 125 μM ATP; 90 min; ATP Km 642 μM.
Assay type: biochemical
Experimental: Compounds were assayed for inhibition of human IRAK4 and IRAK1 catalytic activity using recombinant enzyme produced from insect cells. Full-length IRAK4 protein, carrying an N-terminal His6-Tag, was obtained from Life Technologies (Carlsbad, Calif., USA). The IRAK1 construct was produced internally and was comprised of IRAK1 residues Arg194 to Ser712, preceded by an NH2-terminal His6 tag and the coding sequence for glutathione-S-transferase.
Kinase activities were assayed using the Transcreener-Fluorecescence polarization platform (BelBrook Labs, Madison, Wis., USA) that measures amounts of the reaction product, ADP.
384 well assay plates spotted with compound received 4 μl of a 2× substrate (ATP+peptide) mix in reaction buffer, followed by 4 μl of 2× enzyme diluted in reaction buffer.

Chain of human IRAK4 (Q9NWZ3 whole entry): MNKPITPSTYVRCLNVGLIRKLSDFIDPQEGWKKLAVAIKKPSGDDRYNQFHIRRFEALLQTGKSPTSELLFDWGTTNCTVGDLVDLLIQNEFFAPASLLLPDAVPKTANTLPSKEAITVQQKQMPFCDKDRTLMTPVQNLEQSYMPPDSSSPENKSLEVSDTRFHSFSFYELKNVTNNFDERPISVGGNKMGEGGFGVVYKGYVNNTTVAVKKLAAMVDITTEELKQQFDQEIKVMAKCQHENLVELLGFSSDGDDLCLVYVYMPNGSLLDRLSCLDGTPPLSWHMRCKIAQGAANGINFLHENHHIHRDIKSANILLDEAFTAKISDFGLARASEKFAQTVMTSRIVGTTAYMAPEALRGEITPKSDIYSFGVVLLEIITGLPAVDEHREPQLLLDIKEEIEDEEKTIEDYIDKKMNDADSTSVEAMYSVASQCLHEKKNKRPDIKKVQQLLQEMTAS

| Ki | Compound |
| --- | --- |
| 3.8 nM | CC1(C)Cc2cc(NC(=O)c3csc(N4CCOCC4)n3)c(N3CCOCC3)cc2O1 [Example 36, N-(2,2-Dimethyl-6-morpholino-2,3-dihydrobenzofuran-5-yl)-2-morpholinothiazole-4-carboxamide] |
| 5.2 nM | CC1(C)Cc2cc(NC(=O)c3coc(N4CCOCC4)n3)c(N3CCOCC3)cc2O1 [Example 37, N-(2,2-Dimethyl-6-morpholino-2,3-dihydrobenzofuran-5-yl)-2-morpholinooxazole-4-carboxamide] |
| 7.4 nM | CC1(C)Cc2cc(NC(=O)c3coc(C4CC4)n3)c(N3CCOCC3)cc2O1 [Example 38, 2-Cyclopropyl-N-(2,2-dimethyl-6-morpholino-2,3-dihydrobenzofuran-5-yl)oxazole-4-carboxamide] |
| 28 nM | CC1(C)Cc2cc(NC(=O)c3cccc4[nH]c(CO)nc34)c(N3CCOCC3)cc2O1 [Example 40, N-(2,2-Dimethyl-6-morpholino-2,3-dihydrobenzofuran-5-yl)-2-(hydroxymethyl)-1H-benzo[d]imidazole-4-carboxamide] |
| 43 nM | CC1(C)Cc2cc(NC(=O)c3coc(C(C)(C)C)n3)c(N3CCOCC3)cc2O1 [Example 41, 2-(tert-Butyl)-N-(2,2-dimethyl-6-morpholino-2,3-dihydrobenzofuran-5-yl)oxazole-4-carboxamide] |
| 98 nM | CC1(C)Cc2cc(NC(=O)c3cscn3)c(N3CCOCC3)cc2O1 [Example 42, N-(2,2-Dimethyl-6-morpholino-2,3-dihydrobenzofuran-5-yl)thiazole-4-carboxamide] |
| 110 nM | CCc1cnc(C(=O)Nc2cc3c(cc2N2CCOCC2)OC(C)(C)C3)[nH]1 [Example 43, N-(2,2-Dimethyl-6-morpholino-2,3-dihydrobenzofuran-5-yl)-5-ethyl-1H-imidazole-2-carboxamide] |
| 290 nM | Cc1cnc(C(=O)Nc2cc3c(cc2N2CCOCC2)OC(C)(C)C3)[nH]1 [Example 44, N-(2,2-Dimethyl-6-morpholino-2,3-dihydrobenzofuran-5-yl)-5-methyl-1H-imidazole-2-carboxamide] |
| 490 nM | CC1(C)Cc2cc(NC(=O)c3n[nH]c4cccnc34)c(N3CCOCC3)cc2O1 [Example 45, N-(2,2-Dimethyl-6-morpholino-2,3-dihydrobenzofuran-5-yl)-1H-pyrazolo[4,3-b]pyridine-3-carboxamide] |
| 140 nM | CC1(C)Cc2cc(NC(=O)c3ccncn3)c(N3CCOCC3)cc2O1 [Example 46, N-(2,2-Dimethyl-6-morpholino-2,3-dihydrobenzofuran-5-yl)pyrimidine-4-carboxamide] |
| 200 nM | CC1(C)Cc2cc(NC(=O)c3ncc(C(C)(C)C)[nH]3)c(N3CCOCC3)cc2O1 [Example 47, 5-(tert-Butyl)-N-(2,2-dimethyl-6-morpholino-2,3-dihydrobenzofuran-5-yl)-1H-imidazole-2-carboxamide] |
| 220 nM | CC1(C)Cc2cc(NC(=O)c3ccco3)c(N3CCOCC3)cc2O1 [Example 48, N-(2,2-Dimethyl-6-morpholino-2,3-dihydrobenzofuran-5-yl)furan-2-carboxamide] |
| 7.6 nM | CC(=O)Nc1cc(-n2ccc(C(=O)Nc3cc4c(cc3N3CCOCC3)OC(C)(C)C4)n2)ccn1 [Example 49, 1-(2-Acetamido-4-pyridyl)-N-(2,2-dimethyl-6-morpholino-3H-benzofuran-5-yl)pyrazole-3-carboxamide] |
| 78 nM | Cn1nnc2c(C(=O)Nc3cc4c(cc3N3CCOCC3)OC(C)(C)C4)cncc21 [Example 50, N-(2,2-Dimethyl-6-morpholino-3H-benzofuran-5-yl)-3-methyl-triazolo[4,5-c]pyridine-7-carboxamide] |
| 18 nM | Cc1nc(C(=O)Nc2cc3c(cc2N2CCOCC2)OC(C)(C)C3)co1 [Example 51, N-(2,2-Dimethyl-6-morpholino-3H-benzofuran-5-yl)-2-methyl-oxazole-4-carboxamide] |
| 100 nM | Cn1nnc2c(C(=O)Nc3cc4c(cc3N3CCOCC3)OC(C)(CO)C4)cncc21 (stereo not shown) [Example 52, N-(2-(Hydroxymethyl)-2-methyl-6-morpholino-2,3-dihydrobenzofuran-5-yl)-3-methyl-3H-[1,2,3]triazolo[4,5-c]pyridine-7-carboxamide] |
| 220 nM | CCn1nnc2c(C(=O)Nc3cc4c(cc3N3CCOCC3)OC(C)(C)C4)cncc21 [Example 53, N-(2,2-Dimethyl-6-morpholino-3H-benzofuran-5-yl)-3-ethyl-triazolo[4,5-c]pyridine-7-carboxamide] |
| 810 nM | CC1(C)COc2cc(C(=O)Nc3cc4c(cc3N3CCOCC3)OC(C)(CO)C4)nn2C1 (stereo not shown) [Example 54, N-[2-(Hydroxymethyl)-2-methyl-6-morpholino-3H-benzofuran-5-yl]-6,6-dimethyl-5,7-dihydropyrazolo[5,1-b][1,3]oxazine-2-carboxamide] |
| 390 nM | CC1COc2c(C(=O)Nc3cc4c(cc3N3CCOCC3)OC(C)(CO)C4)cnn2C1 (stereo not shown) [Example 55, N-[2-(Hydroxymethyl)-2-methyl-6-morpholino-3H-benzofuran-5-yl]-6-methyl-6,7-dihydro-5H-pyrazolo[5,1-b][1,3]oxazine-3-carboxamide] |
| 29 nM | COc1ccc(-n2ccc(C(=O)Nc3cc4c(cc3N3CCOCC3)OC(C)(C)C4)n2)cn1 [Example 58, N-(2,2-Dimethyl-6-morpholino-3H-benzofuran-5-yl)-1-(6-methoxy-3-pyridyl)pyrazole-3-carboxamide] |
| 1.6 nM | CC1(C)Cc2cc(NC(=O)c3ccn(-c4ccnc(CO)c4)n3)c(N3CCOCC3)cc2O1 [Example 59, N-(2,2-Dimethyl-6-morpholino-3H-benzofuran-5-yl)-1-[2-(hydroxymethyl)-4-pyridyl]pyrazole-3-carboxamide] |
| 8.2 nM | COc1cc(-n2ccc(C(=O)Nc3cc4c(cc3N3CCOCC3)OC(C)(C)C4)n2)ccn1 [Example 60, N-(2,2-Dimethyl-6-morpholino-3H-benzofuran-5-yl)-1-(2-methoxy-4-pyridyl)pyrazole-3-carboxamide] |
| 4.6 nM | CC1(C)Cc2cc(NC(=O)c3ccn(-c4ccnc(C(C)(C)O)c4)n3)c(N3CCOCC3)cc2O1 [Example 61, N-(2,2-Dimethyl-6-morpholino-3H-benzofuran-5-yl)-1-[2-(1-hydroxy-1-methyl-ethyl)-4-pyridyl]pyrazole-3-carboxamide] |
| 17 nM | CC1(C)Cc2cc(NC(=O)c3ccn(-c4ccnc(NCC(F)(F)F)c4)n3)c(N3CCOCC3)cc2O1 [Example 62, N-(2,2-Dimethyl-6-morpholino-3H-benzofuran-5-yl)-1-[2-(2,2,2-trifluoroethylamino)-4-pyridyl]pyrazole-3-carboxamide] |
| 16 nM | CC1(C)Cc2cc(NC(=O)c3ccn(-c4ccnc(C#N)c4)n3)c(N3CCOCC3)cc2O1 [Example 63, 1-(2-Cyano-4-pyridyl)-N-(2,2-dimethyl-6-morpholino-3H-benzofuran-5-yl)pyrazole-3-carboxamide] |
| 350 nM | CC1(C)Cc2cc(NC(=O)c3cncc4c3nnn4CCO)c(N3CCOCC3)cc2O1 [Example 64, N-(2,2-Dimethyl-6-morpholino-3H-benzofuran-5-yl)-3-(2-hydroxyethyl)triazolo[4,5-c]pyridine-7-carboxamide] |
| 270 nM | Cc1cn2cccc(C(=O)Nc3cc4c(cc3N3CCOCC3)OC(C)(C)C4)c2n1 [Example 65, N-(2,2-Dimethyl-6-morpholino-3H-benzofuran-5-yl)-2-methyl-imidazo[1,2-a]pyridine-8-carboxamide] |
| 14 nM | CC1(C)Cc2cc(NC(=O)c3ccn(-c4ccc(=O)[nH]c4)n3)c(N3CCOCC3)cc2O1 [Example 66, N-(2,2-Dimethyl-6-morpholino-3H-benzofuran-5-yl)-1-(6-oxo-1H-pyridin-3-yl)pyrazole-3-carboxamide] |
| 28 nM | CC1(CO)Cc2cc(NC(=O)c3csc4cc(C#N)cnc34)c(N3CCOCC3)cc2O1 (stereo not shown) [Example 69, 6-Cyano-N-(2-(hydroxymethyl)-2-methyl-6-morpholino-2,3-dihydrobenzofuran-5-yl)thieno[3,2-b]pyridine-3-carboxamide Formate] |
| 2.7 nM | CC1(C)Cc2cc(NC(=O)c3ccn(-c4cc[nH]c(=O)c4)n3)c(N3CCOCC3)cc2O1 [Example 70, N-(2,2-Dimethyl-6-morpholino-3H-benzofuran-5-yl)-1-(2-oxo-1H-pyridin-4-yl)pyrazole-3-carboxamide] |

| Compound | Ki |
| --- | --- |
| CC1(C)Cc2cc(NC(=O)c3cnn4ccc(=O)[nH]c34)c(N3CCOCC3)cc2O1 [Example 71, N-(2,2-dimethyl-6-morpholino-3H-benzofuran-5-yl)-5-oxo-4H-pyrazolo[1,5-a]pyrimidine-3-carboxamide] | 930 nM |
